Results taken from patent US10710978B2, “STK4 inhibitors for treatment of hematologic malignancies” (Dana-Farber Cancer Institute, Inc., priority 2015, dated 2020).
Where two headings read alike, the source gives them in different places.

Assays:
Assay in all cases: KiNativ assay
Assay type in all cases: binding
Details in all cases: H929 live cell
CK1g1 = CK1g1 (Homo sapiens (Human), UniProt Q9HCP0)
Procedure, shortened: (§1)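 In duplicate, compounds at 10 μM were screened against kinases in H929 live cells using KiNativ, with MS as the detection method for IC50.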

ROCK1, ROCK2 = tested on: ROCK1, ROCK2
Procedure, shortened: as §1

GPRK5 = GPRK5 (Homo sapiens (Human), UniProt P34947)
Procedure, shortened: as §1

ARAF = ARAF (Homo sapiens (Human), UniProt P10398)
Procedure, shortened: as §1

DNAPK = DNAPK (Homo sapiens (Human), UniProt P78527)
Procedure: (§2) Biochemical IC50s of the compounds of the present disclosure against various kinases were measured in a KiNativ assay. Compounds were screened in duplicate at 10 μM in H929 live cell. IC50 was measured via Mass spectroscopy (MS).

PDK1 = PDK1 (Homo sapiens (Human), UniProt O15530)
Procedure, shortened: as §1

QSK = QSK (Homo sapiens (Human), UniProt Q9Y2K2)
Procedure, shortened: as §1

CK1d, CK1e = tested on: CK1d, CK1e
Procedure, shortened: as §1

RIPK3 = RIPK3 (Homo sapiens (Human), UniProt Q9Y572)
Procedure, shortened: as §1

ATM = ATM (Homo sapiens (Human), UniProt Q13315)
Procedure, shortened: as §1

MER, TYRO3 = tested on: MER, TYRO3
Procedure, shortened: as §1

PCTAIRE1 = PCTAIRE1 (Homo sapiens (Human), UniProt Q00536)
Procedure, shortened: as §1

CLK3 = CLK3 (Homo sapiens (Human), UniProt P49761)
Procedure, shortened: as §1

CDK6 = CDK6 (Homo sapiens (Human), UniProt Q00534)
Procedure: as §2

MAST1, MAST2 = tested on: MAST1, MAST2
Procedure, shortened: as §1

CaMK4 = CaMK4 (Homo sapiens (Human), UniProt Q16566)
Procedure, shortened: as §1

[1] = tested on: ALK2, ALK4, ALK7, BMPR1B, TGFbR1
Procedure, shortened: as §1

PCTAIRE1, PCTAIRE3 = tested on: PCTAIRE1, PCTAIRE3
Procedure, shortened: as §1

PCTAIRE2, PCTAIRE3 = tested on: PCTAIRE2, PCTAIRE3
Procedure, shortened: as §1

ULK3 = ULK3 (Homo sapiens (Human), UniProt Q6PHR2)
Procedure, shortened: as §1

PIP4K2B = PIP4K2B (Homo sapiens (Human), UniProt P78356)
Procedure, shortened: as §1

TAK1 = TAK1 (Homo sapiens (Human), UniProt O43318)
Procedure, shortened: as §1

GPRK6 = GPRK6 (Homo sapiens (Human), UniProt P43250)
Procedure, shortened: as §1

MAP3K3 = MAP3K3 (Homo sapiens (Human), UniProt Q99759)
Procedure, shortened: as §1

GAK = GAK (Homo sapiens (Human), UniProt O14976)
Procedure, shortened: as §1

Erk5 = Erk5 (Homo sapiens (Human), UniProt Q13164)
Procedure, shortened: as §1

PYK2 = PYK2 (Homo sapiens (Human), UniProt Q14289)
Procedure, shortened: as §1

MAP3K6 = MAP3K6 (Homo sapiens (Human), UniProt O95382)
Procedure, shortened: as §1

LATS2 = LATS2 (Homo sapiens (Human), UniProt Q9NRM7)
Procedure, shortened: as §1

AGK = AGK (Homo sapiens (Human), UniProt Q53H12)
Procedure, shortened: as §1

MELK = MELK (Homo sapiens (Human), UniProt Q14680)
Procedure, shortened: as §1

LZK = LZK (Homo sapiens (Human), UniProt O43283)
Procedure, shortened: as §1

MAP3K15 = MAP3K15 (Homo sapiens (Human), UniProt Q6ZN16)
Procedure, shortened: as §1

[2] = range class, read-out: % inhibition

Sequence of DNAPK (P78527 whole entry): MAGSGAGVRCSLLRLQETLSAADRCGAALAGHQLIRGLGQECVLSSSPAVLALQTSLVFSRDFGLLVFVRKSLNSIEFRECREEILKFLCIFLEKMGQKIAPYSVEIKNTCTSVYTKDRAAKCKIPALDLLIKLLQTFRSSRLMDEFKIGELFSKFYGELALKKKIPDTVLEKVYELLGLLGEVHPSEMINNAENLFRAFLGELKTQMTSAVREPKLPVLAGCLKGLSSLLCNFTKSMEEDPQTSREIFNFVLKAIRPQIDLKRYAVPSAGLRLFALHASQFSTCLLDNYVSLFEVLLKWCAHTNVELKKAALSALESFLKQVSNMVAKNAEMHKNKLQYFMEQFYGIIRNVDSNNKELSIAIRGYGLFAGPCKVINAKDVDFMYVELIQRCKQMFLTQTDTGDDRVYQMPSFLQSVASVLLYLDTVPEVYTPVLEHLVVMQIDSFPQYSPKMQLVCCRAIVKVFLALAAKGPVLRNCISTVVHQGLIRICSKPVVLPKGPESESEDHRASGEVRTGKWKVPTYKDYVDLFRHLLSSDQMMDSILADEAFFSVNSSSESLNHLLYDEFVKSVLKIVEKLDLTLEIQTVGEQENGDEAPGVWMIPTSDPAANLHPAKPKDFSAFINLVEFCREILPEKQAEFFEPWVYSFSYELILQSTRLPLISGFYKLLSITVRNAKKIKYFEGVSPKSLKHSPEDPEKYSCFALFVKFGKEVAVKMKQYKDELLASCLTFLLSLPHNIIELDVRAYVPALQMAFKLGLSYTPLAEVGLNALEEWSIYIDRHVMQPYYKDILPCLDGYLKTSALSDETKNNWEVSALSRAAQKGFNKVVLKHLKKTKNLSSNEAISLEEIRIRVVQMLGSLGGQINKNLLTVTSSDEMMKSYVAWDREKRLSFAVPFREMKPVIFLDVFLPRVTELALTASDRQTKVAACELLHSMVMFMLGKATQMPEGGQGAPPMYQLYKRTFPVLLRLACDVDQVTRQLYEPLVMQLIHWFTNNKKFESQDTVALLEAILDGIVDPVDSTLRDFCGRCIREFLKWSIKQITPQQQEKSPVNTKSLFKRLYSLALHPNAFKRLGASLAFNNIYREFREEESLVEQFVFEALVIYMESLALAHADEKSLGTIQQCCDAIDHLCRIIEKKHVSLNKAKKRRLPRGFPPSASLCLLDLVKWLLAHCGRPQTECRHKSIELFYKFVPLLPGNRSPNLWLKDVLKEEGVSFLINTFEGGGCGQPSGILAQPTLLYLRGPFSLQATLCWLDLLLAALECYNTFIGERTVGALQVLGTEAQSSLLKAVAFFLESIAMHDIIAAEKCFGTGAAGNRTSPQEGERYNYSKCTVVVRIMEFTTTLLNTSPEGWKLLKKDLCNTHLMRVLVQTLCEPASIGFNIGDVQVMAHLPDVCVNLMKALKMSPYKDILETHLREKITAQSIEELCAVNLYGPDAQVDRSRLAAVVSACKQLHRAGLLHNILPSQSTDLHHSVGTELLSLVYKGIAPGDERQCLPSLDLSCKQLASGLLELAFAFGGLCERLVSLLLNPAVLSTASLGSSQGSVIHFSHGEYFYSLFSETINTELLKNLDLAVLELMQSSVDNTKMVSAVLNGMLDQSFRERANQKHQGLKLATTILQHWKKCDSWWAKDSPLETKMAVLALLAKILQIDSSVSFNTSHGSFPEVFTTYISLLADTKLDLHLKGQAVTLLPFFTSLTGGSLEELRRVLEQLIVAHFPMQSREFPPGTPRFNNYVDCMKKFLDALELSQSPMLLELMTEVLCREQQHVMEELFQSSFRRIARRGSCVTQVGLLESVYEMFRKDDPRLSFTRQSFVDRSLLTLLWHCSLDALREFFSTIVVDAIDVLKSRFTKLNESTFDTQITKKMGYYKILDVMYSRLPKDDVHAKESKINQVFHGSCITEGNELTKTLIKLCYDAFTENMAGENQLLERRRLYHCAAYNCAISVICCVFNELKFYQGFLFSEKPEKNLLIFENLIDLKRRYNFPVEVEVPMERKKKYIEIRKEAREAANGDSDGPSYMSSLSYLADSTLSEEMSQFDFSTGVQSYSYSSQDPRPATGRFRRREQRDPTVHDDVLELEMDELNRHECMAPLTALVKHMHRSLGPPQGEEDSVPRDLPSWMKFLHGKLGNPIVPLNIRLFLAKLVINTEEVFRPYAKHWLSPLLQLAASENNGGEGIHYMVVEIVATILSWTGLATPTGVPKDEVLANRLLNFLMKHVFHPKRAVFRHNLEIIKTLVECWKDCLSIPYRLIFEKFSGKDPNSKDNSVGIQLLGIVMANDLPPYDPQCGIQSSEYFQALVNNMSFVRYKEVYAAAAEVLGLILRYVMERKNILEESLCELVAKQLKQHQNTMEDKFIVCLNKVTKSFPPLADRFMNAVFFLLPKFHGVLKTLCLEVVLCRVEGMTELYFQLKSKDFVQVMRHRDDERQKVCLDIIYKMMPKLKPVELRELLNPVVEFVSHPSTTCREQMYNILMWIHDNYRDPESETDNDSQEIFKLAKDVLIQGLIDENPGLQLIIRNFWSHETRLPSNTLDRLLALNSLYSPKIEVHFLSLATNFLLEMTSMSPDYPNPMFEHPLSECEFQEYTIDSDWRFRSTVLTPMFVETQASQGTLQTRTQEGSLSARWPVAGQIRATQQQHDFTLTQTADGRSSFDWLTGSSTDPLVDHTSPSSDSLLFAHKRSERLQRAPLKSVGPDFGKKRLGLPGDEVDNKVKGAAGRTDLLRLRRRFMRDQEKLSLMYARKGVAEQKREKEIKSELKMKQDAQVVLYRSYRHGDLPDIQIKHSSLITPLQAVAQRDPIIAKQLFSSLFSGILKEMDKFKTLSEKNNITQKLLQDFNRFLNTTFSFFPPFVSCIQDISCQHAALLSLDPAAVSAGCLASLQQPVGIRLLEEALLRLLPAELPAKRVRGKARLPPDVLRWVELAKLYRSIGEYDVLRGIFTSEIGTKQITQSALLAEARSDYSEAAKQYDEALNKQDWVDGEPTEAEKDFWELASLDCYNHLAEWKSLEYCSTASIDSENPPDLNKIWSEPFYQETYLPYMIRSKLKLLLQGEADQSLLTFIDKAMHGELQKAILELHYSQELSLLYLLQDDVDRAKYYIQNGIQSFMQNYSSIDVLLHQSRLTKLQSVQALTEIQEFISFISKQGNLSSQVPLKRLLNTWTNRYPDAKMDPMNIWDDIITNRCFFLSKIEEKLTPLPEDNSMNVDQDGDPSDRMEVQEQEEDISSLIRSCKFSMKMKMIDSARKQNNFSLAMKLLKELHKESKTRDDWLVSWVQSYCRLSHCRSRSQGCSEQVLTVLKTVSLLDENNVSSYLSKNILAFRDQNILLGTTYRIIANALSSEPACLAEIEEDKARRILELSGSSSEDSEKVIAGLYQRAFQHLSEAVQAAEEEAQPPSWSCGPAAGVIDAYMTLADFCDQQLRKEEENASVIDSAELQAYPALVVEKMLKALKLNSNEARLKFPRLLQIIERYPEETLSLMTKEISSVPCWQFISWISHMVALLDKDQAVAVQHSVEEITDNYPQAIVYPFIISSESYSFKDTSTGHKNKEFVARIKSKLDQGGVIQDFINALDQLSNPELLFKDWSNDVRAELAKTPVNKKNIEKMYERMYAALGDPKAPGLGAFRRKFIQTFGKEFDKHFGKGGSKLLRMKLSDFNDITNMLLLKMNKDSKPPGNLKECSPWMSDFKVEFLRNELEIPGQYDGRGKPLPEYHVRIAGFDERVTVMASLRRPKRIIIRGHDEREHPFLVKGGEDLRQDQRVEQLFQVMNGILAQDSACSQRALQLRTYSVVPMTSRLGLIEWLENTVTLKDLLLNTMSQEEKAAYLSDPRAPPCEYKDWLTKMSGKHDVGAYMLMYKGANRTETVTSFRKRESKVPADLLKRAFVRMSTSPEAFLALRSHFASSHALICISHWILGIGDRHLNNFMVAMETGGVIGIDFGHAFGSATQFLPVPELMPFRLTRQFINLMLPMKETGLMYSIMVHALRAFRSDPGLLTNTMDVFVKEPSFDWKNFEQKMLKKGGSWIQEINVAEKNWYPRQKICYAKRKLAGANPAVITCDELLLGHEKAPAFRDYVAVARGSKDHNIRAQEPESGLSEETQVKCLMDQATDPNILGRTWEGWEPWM
Sequence of RIPK3 (Q9Y572 whole entry): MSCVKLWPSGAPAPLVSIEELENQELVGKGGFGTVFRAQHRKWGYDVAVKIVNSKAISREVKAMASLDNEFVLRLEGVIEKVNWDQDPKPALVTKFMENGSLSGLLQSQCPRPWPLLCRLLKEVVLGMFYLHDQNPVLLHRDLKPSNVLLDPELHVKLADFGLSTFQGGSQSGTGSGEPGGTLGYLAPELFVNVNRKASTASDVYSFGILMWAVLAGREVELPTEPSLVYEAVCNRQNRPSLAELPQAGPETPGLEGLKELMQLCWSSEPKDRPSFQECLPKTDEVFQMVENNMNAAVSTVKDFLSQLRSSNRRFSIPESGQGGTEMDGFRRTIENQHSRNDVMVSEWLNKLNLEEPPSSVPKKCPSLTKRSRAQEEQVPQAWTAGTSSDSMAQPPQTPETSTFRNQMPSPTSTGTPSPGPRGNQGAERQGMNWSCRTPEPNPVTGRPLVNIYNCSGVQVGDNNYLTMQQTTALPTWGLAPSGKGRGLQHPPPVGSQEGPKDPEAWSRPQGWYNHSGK
Sequence of CDK6 (Q00534 whole entry): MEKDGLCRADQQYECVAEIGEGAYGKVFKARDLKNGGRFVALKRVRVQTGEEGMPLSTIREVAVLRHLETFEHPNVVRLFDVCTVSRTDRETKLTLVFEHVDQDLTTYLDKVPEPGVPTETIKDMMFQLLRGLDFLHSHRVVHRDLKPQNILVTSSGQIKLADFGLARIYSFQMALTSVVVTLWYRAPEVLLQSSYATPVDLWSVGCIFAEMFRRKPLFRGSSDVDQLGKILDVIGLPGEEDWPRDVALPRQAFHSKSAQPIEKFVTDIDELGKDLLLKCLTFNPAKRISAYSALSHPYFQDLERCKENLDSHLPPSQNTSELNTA

SMILES: Nc1ncc(-c2cccc([N+](=O)[O-])c2F)cc1-c1ccc2c(c1)CCNC2=O [Compound I-9, 6-(2-amino-5-(2-fluoro-3-nitrophenyl)pyridin-3-yl)-3,4-dihydroisoquinolin-1(2H)-one]
- inhibition at 10 µM (CK1g1; read-out: % inhibition (range)): 75 to 90%
- inhibition at 10 µM (CK1g1; read-out: inhibition (10 μM)): > 85%
- % inhibition (range) (ROCK1, ROCK2; 10 μM): 0.0%
- inhibition (10 μM) (ROCK1, ROCK2): −55.8%
- inhibition at 10 µM (GPRK5; read-out: % inhibition (range)): 0%
- inhibition at 10 µM (GPRK5; read-out: inhibition (10 μM)): 19.6%
- inhibition at 10 µM (ARAF; read-out: % inhibition (range)): 0%
- inhibition at 10 µM (ARAF; read-out: inhibition (10 μM)): 9.5%
- % inhibition (range) (DNAPK; 10 μM): >90%
- inhibition (10 μM) (DNAPK): 94.0%
- inhibition at 10 µM (DNAPK; read-out: % inhibition (range)): 75 to 90%
- inhibition at 10 µM (DNAPK; read-out: inhibition (10 μM)): 79.4%
- inhibition at 10 µM (PDK1; read-out: % inhibition (range)): 0%
- inhibition at 10 µM (PDK1; read-out: inhibition (10 μM)): 28.1%
- inhibition at 10 µM (QSK; read-out: % inhibition (range)): 50 to 75%
- inhibition at 10 µM (QSK; read-out: inhibition (10 μM)): 72.8%
- % inhibition (range) (CK1d, CK1e; 10 μM): >90%
- inhibition (10 μM) (CK1d, CK1e): >95%
- inhibition at 10 µM (RIPK3; read-out: % inhibition (range)): 0%
- inhibition at 10 µM (RIPK3; read-out: inhibition (10 μM)): -33.4%

SMILES: COc1cc(NS(=O)(=O)C2CC2)ccc1-c1cnc(N)c(-c2ccc3c(c2)CCNC3=O)c1 [Compound I-50, N-(4-(6-amino-5-(1-oxo-1,2,3,4-tetrahydroisoquinolin-6-yl)pyridin-3-yl)-3-methoxyphenyl) cyclopropanesulfonamide]
- inhibition at 10 µM (ATM; [2]): 0%
- inhibition at 10 µM (ATM; read-out: inhibition (10 μM)): 34.6%
- % inhibition (MER, TYRO3; 10 μM, range class): 0.0%
- inhibition (10 μM) (MER, TYRO3): −2.0%
- inhibition at 10 µM (PCTAIRE1; [2]): 0%
- inhibition at 10 µM (PCTAIRE1; read-out: inhibition (10 μM)): -15.6%
- inhibition at 10 µM (CLK3; [2]): 0%
- inhibition at 10 µM (CLK3; read-out: inhibition (10 μM)): 1.5%
- inhibition at 10 µM (CDK6; [2]): 0%
- inhibition at 10 µM (CDK6; read-out: inhibition (10 μM)): 15%
- % inhibition (MAST1, MAST2; 10 μM, range class): 0.0%
- inhibition (10 μM) (MAST1, MAST2): 2.6%
- inhibition at 10 µM (CaMK4; [2]): 0%
- inhibition at 10 µM (CaMK4; read-out: inhibition (10 μM)): -17.9%
- % inhibition ([1]; 10 μM, range class): 75-90%
- inhibition (10 μM) [1]: 84.0%
- % inhibition (PCTAIRE1, PCTAIRE3; 10 μM, range class): 0.0%
- inhibition (10 μM) (PCTAIRE1, PCTAIRE3): −3.5%
- % inhibition (PCTAIRE2, PCTAIRE3; 10 μM, range class): 0.0%
- inhibition (10 μM) (PCTAIRE2, PCTAIRE3): −8.9%
- inhibition at 10 µM (ULK3; [2]): 0%
- inhibition at 10 µM (ULK3; read-out: inhibition (10 μM)): -14.2%
- inhibition at 10 µM (PIP4K2B; [2]): 0%
- inhibition at 10 µM (PIP4K2B; read-out: inhibition (10 μM)): -31.5%
- inhibition at 10 µM (TAK1; [2]): 35 to 40%
- inhibition at 10 µM (TAK1; read-out: inhibition (10 μM)): 39.1%
- inhibition at 10 µM (GPRK6; [2]): 0%
- inhibition at 10 µM (GPRK6; read-out: inhibition (10 μM)): -40.5%
- inhibition at 10 µM (MAP3K3; [2]): 0%
- inhibition at 10 µM (MAP3K3; read-out: inhibition (10 μM)): -5.7%
- inhibition at 10 µM (GAK; [2]): 50 to 75%
- inhibition at 10 µM (GAK; read-out: inhibition (10 μM)): 51.1%
- inhibition at 10 µM (Erk5; [2]): 0%
- inhibition at 10 µM (Erk5; read-out: inhibition (10 μM)): -2.8%
- inhibition at 10 µM (DNAPK; [2]): 0%
- inhibition at 10 µM (PYK2; [2]): 0%
- inhibition at 10 µM (PYK2; read-out: inhibition (10 μM)): 31.5%
- inhibition at 10 µM (MAP3K6; [2]): 0%
- inhibition at 10 µM (MAP3K6; read-out: inhibition (10 μM)): -5.4%
- inhibition at 10 µM (LATS2; [2]): 0%
- inhibition at 10 µM (LATS2; read-out: inhibition (10 μM)): 1.1%
- inhibition at 10 µM (AGK; [2]): 0%
- inhibition at 10 µM (AGK; read-out: inhibition (10 μM)): 11.5%
- inhibition at 10 µM (MELK; [2]): 35 to 40%
- inhibition at 10 µM (MELK; read-out: inhibition (10 μM)): 45.9%
- inhibition at 10 µM (LZK; [2]): 0%
- inhibition at 10 µM (LZK; read-out: inhibition (10 μM)): 1.3%
- inhibition at 10 µM (MAP3K15; [2]): 35 to 40%
- inhibition at 10 µM (MAP3K15; read-out: inhibition (10 μM)): 46.7%
